What was measured:
[1] = test system: adult patients with Type 1 Diabetes Mellitus who have inadequate glycemic control with insulin therapy; test: inTandem 1 and inTandem 2 pooled clinical studies, safety events / main risks; format: in vivo, human; conditions: for Discontinuation of drug due to diarrhea / Patients with Any TEAE, (%) / Patients with DKA (positively adjudicated), (%) / Patients with Diarrhea, (%) / Patients with Genital mycotic infection, (%) / Patients with Severe hypoglycemia (positively adjudicated), (%): through 52 Weeks
[2] = test system: patients with type 1 diabetes; conditions: phase II trials; cited from earlier work
[3] = 400 mg, Baseline BMI <27 kg/m^2, Week 52
[4] = 400 mg, Baseline BMI ≥27 kg/m^2, Week 52

## CCOc1ccc(Cc2cc([C@@H]3O[C@H](SC)[C@@H](O)[C@H](O)[C@H]3O)ccc2Cl)cc1 [sotagliflozin, (2S,3R,4R,5S,6R)-2-(4-chloro-3-(4-ethoxybenzyl)phenyl)-6-(methylthio)tetrahydro-2H-pyran-3,4,5-triol]
[1]; [3]
  Diarrhea, EAIR per 1,000 Subject-years (95% CL): 102.78 (56.56, 148.99) per 1,000 Subject-years
  Diarrhea, Events [n (%) n]: events n: 28
  Diarrhea, Events [n (%) n]: patients (%): 9.0%
  Diarrhea, Events [n (%) n]: patients n: 19
  Diarrhea, Events per Subject per Year: 0.151 Events per Subject per Year
  Diarrhea, Relative Risk of EAIR (95% CL) Versus Placebo: 2.98 (1.28, 7.60)
  Documented hypoglycemia <55 mg/dL, Events per Subject per Year: 15.74 Events per Subject per Year
  Genital Mycotic Infections (female), EAIR per 1,000 Subject-years (95% CL): 196.79 (108.30, 285.28) per 1,000 Subject-years
  Genital Mycotic Infections (female), Events [n (%) n]: events n: 31
  Genital Mycotic Infections (female), Events [n (%) n]: patients (%): 16.8%
  Genital Mycotic Infections (female), Events per Subject per Year: 0.321 Events per Subject per Year
  Genital Mycotic Infections (female), Relative Risk of EAIR (95% CL) Versus Placebo: 6.46 (2.09, 27.41)
  Genital Mycotic Infections (male), EAIR per 1,000 Subject-years (95% CL): 101.91 (35.33, 168.49) per 1,000 Subject-years
  Genital Mycotic Infections (male), Events [n (%) n]: events n: 10
  Genital Mycotic Infections (male), Events [n (%) n]: patients (%): 9.1%
  Genital Mycotic Infections (male), Events per Subject per Year: 0.113 Events per Subject per Year
  Genital Mycotic Infections (male), Relative Risk of EAIR (95% CL) Versus Placebo: 5.31 (1.26, 36.06)
  Positively Adjudicated Diabetic Ketoacidosis, EAIR per 1,000 Subject-years (95% CL): 48.68 (16.88, 80.49) per 1,000 Subject-years
  Positively Adjudicated Diabetic Ketoacidosis, Events [n (%) n]: events n: 9
  Positively Adjudicated Diabetic Ketoacidosis, Events [n (%) n]: patients (%): 4.2%
  Positively Adjudicated Diabetic Ketoacidosis, Events per Subject per Year: 0.049 Events per Subject per Year
  Positively Adjudicated Severe Hypoglycemia, EAIR per 1,000 Subject-years (95% CL): 59.50 (24.34, 94.67) per 1,000 Subject-years
  Positively Adjudicated Severe Hypoglycemia, Events [n (%) n]: events n: 16
  Positively Adjudicated Severe Hypoglycemia, Events [n (%) n]: patients (%): 5.2%
  Positively Adjudicated Severe Hypoglycemia, Events per Subject per Year: 0.087 Events per Subject per Year
  Positively Adjudicated Severe Hypoglycemia, Relative Risk of EAIR (95% CL) Versus Placebo: 0.71 (0.32, 1.51)
[1]; [4]
  Diarrhea, EAIR per 1,000 Subject-years (95% CL): 92.38 (57.53, 127.23) per 1,000 Subject-years
  Diarrhea, Events [n (%) n]: events n: 37
  Diarrhea, Events [n (%) n]: patients (%): 8.6%
  Diarrhea, Events [n (%) n]: patients n: 27
  Diarrhea, Events per Subject per Year: 0.127 Events per Subject per Year
  Diarrhea, Relative Risk of EAIR (95% CL) Versus Placebo: 1.25 (0.70, 2.27)
  Documented hypoglycemia <55 mg/dL, Events per Subject per Year: 14.45 Events per Subject per Year
  Genital Mycotic Infections (female), EAIR per 1,000 Subject-years (95% CL): 192.26 (121.05, 263.48) per 1,000 Subject-years
  Genital Mycotic Infections (female), Events [n (%) n]: events n: 48
  Genital Mycotic Infections (female), Events [n (%) n]: patients (%): 17.6%
  Genital Mycotic Infections (female), Events per Subject per Year: 0.330 Events per Subject per Year
  Genital Mycotic Infections (female), Relative Risk of EAIR (95% CL) Versus Placebo: 2.70 (1.30, 6.04)
  Genital Mycotic Infections (male), EAIR per 1,000 Subject-years (95% CL): 47.74 (12.37, 83.10) per 1,000 Subject-years
  Genital Mycotic Infections (male), Events [n (%) n]: events n: 10
  Genital Mycotic Infections (male), Events [n (%) n]: patients (%): 4.5%
  Genital Mycotic Infections (male), Events per Subject per Year: 0.068 Events per Subject per Year
  Genital Mycotic Infections (male), Relative Risk of EAIR (95% CL) Versus Placebo: 6.93 (1.07, 157.36)
  Positively Adjudicated Diabetic Ketoacidosis, EAIR per 1,000 Subject-years (95% CL): 37.64 (15.39, 59.88) per 1,000 Subject-years
  Positively Adjudicated Diabetic Ketoacidosis, Events [n (%) n]: events n: 11
  Positively Adjudicated Diabetic Ketoacidosis, Events [n (%) n]: patients (%): 3.5%
  Positively Adjudicated Diabetic Ketoacidosis, Events per Subject per Year: 0.038 Events per Subject per Year
  Positively Adjudicated Diabetic Ketoacidosis, Relative Risk of EAIR (95% CL) Versus Placebo: 10.22 (1.74, 221.94)
  Positively Adjudicated Severe Hypoglycemia, EAIR per 1,000 Subject-years (95% CL): 41.06 (17.83, 64.29) per 1,000 Subject-years
  Positively Adjudicated Severe Hypoglycemia, Events [n (%) n]: events n: 17
  Positively Adjudicated Severe Hypoglycemia, Events [n (%) n]: patients (%): 3.8%
  Positively Adjudicated Severe Hypoglycemia, Events per Subject per Year: 0.058 Events per Subject per Year
  Positively Adjudicated Severe Hypoglycemia, Relative Risk of EAIR (95% CL) Versus Placebo: 0.51 (0.24, 1.02)
[1]; SOTA 200 mg
  Discontinuation of drug due to diarrhea: 0.4%
  Patients with Any TEAE, (%): (75.0) %
  Patients with DKA (positively adjudicated), (%): (2.9) %
  Patients with Diarrhea, (%): (6.5) %
  Patients with Genital mycotic infection, (%): (9.2) %
  Patients with Severe hypoglycemia (positively adjudicated), (%): (5.7) %
[1]; SOTA 400 mg
  Discontinuation of drug due to diarrhea: 0.8%
  Patients with Any TEAE, (%): (74.3) %
  Patients with DKA (positively adjudicated), (%): (3.8) %
  Patients with Diarrhea, (%): (8.8) %
  Patients with Genital mycotic infection, (%): (12.0) %
  Patients with Severe hypoglycemia (positively adjudicated), (%): (4.4) %
[1]; baseline BMI ≥27 kg/m^2, any doses
  risk of diarrhea compared to placebo: No increased risk
[1]; both BMI subgroups
  risk of DKA versus placebo: increased
[1]; both doses, baseline BMI ≥27 kg/m^2 (only 400 mg in BMI <27 kg/m^2)
  risk of severe hypoglycemia: numerically lower risk
[1]; both doses, both BMI subgroups
  event rates of documented hypoglycemia ≤55 mg/dL: numerically lower
[2]
  glycemic control (reduction in A1C): significantly improve glycemic control
